Assay results published in the supplement of paper PMC11208160.

experiment: recombinant barcode read abundance after kanamycin selection (control-corrected) (log10(CPM+1)); higher = more efficient recombination; sequences stand for … in AGTGCAGAGAAAATCGGCCAGTTTTCTCTGCCTGCAGTCCGCATGCCGT…AGATTTATGCAGCGGACTGCCTTTCTCCCAAAGTGATAAACCGGACAGTATCATGGACCGGTTTTCCCGGTAATCCGTATTTGCAAGGTTGGTTTCACT; site = the 11-nt target
How it was run: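 Reported as log10(CPM+1), each value stands for recombination efficiency. That efficiency is the averaged, control-corrected counts per million of barcodes found at recombinant junctions. Cells from a pooled E. coli library pairing targets with IS621 bridge RNA target-binding loops were plated twice on chloramphenicol/ampicillin LB agar (control) and twice on chloramphenicol/ampicillin/kanamycin with 0.1 mM IPTG.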
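Also: IS621 recombinase and bridge RNA in Escherichia coli cells.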

Sequence | recombinant barcode read abundance (log10)
TGCGTTCCTTGGGTTCTAACCTGTTGCGT (site TGCGTCACTAC) | 0.0759
TGCGTTCCTTGGGTTCTAACCTGTTGCGT (site TGCGTTCCTAC) | 0.88
TGCTAGGCTTGGGTTCTAACCTGTTGCCT (site TGCTAGGCTAG) | 0.0609
TGCTAGGCTTGGGTTCTAACCTGTTGCCT (site TGTCAGGCTAG) | 0.0576
TGCTCGGCTTGGGTTCTAACCTGTTGCCT (site AGCTCCGCTAG) | 0
TGCTCGGCTTGGGTTCTAACCTGTTGCCT (site TGCTCGGCTAG) | 0.0603
TGCTCTACTTGGGTTCTAACCTGTTGCTT (site TGATCTACTAA) | 0.122
TGCTCTACTTGGGTTCTAACCTGTTGCTT (site TGCTCTACTAA) | 0.0286
TGCTCTACTTGGGTTCTAACCTGTTGCTT (site TGGTCTACTAA) | 0.0891
TGCTCTACTTGGGTTCTAACCTGTTGCTT (site TGTTCTACTAA) | 0.00634
TGCTGTGCTTGGGTTCTAACCTGTTGCCT (site TGCTGTACTAG) | 0.0329
TGCTGTGCTTGGGTTCTAACCTGTTGCCT (site TGCTGTCCTAG) | 0.179
TGCTGTGCTTGGGTTCTAACCTGTTGCCT (site TGCTGTGCTAG) | 0.29
TGCTGTGCTTGGGTTCTAACCTGTTGCCT (site TGCTGTTCTAG) | 0.279
TGGAACACTTGGGTTCTAACCTGTTGCCT (site TGGAACACTAG) | 0.98
TGGAACACTTGGGTTCTAACCTGTTGCCT (site TGGACCACTAG) | 0.0483
TGGAACACTTGGGTTCTAACCTGTTGCCT (site TGGAGCACTAG) | 0.0596
TGGAACACTTGGGTTCTAACCTGTTGCCT (site TGGATCACTAG) | 0.119
TGGACCTCTTGGGTTCTAACCTGTTGCCA (site CTACGAACTCC) | 0.626
TGGACCTCTTGGGTTCTAACCTGTTGCCA (site TGGACCTCTTG) | 0.222
TGGACGTCTTGGGTTCTAACCTGTTGCCT (site TGGACGCCTAG) | 0.125
TGGACGTCTTGGGTTCTAACCTGTTGCCT (site TGGACGTCTAG) | 0.865

Sequence | recombinant barcode read abundance (log10)
TGGACTTCTTGGGTTCTAACCTGTTGCTC (site TGGACTTCTCA) | 0.24
TGGACTTCTTGGGTTCTAACCTGTTGCTC (site TGGACTTCTGA) | 0.141
TGGCAGACTTGGGTTCTAACCTGTTGCCT (site TGGCAGACTAG) | 0.215
TGGCAGACTTGGGTTCTAACCTGTTGCCT (site TGGCAGCCTAG) | 0.263
TGGCAGACTTGGGTTCTAACCTGTTGCCT (site TGGCAGGCTAG) | 0.0442
TGGCAGACTTGGGTTCTAACCTGTTGCCT (site TGGCAGTCTAG) | 0.232
TGGCAGCCTTGGGTTCTAACCTGTTGCCT (site TGGCAGACTAG) | 0.0766
TGGCAGCCTTGGGTTCTAACCTGTTGCCT (site TGGCAGCCTAG) | 0.216
TGGCAGCCTTGGGTTCTAACCTGTTGCCT (site TGGCAGGCTAG) | 0.231
TGGCAGCCTTGGGTTCTAACCTGTTGCCT (site TGGCAGTCTAG) | 0.0934
TGGCGTGCTTGGGTTCTAACCTGTTGCCT (site TGGCGTGCTAG) | 0.382
TGGCGTGCTTGGGTTCTAACCTGTTGCCT (site TGTTGTGCTAG) | 0.118
TGGCTGTCTTGGGTTCTAACCTGTTGCCT (site TGGCTGTCTAG) | 1.2
TGGCTGTCTTGGGTTCTAACCTGTTGCCT (site TGGTTGTCTAG) | 0.0561
TGGTACCCTTGGGTTCTAACCTGTTGCTA (site GTTACTACTCG) | 0.0129
TGGTACCCTTGGGTTCTAACCTGTTGCTA (site TGGTACCCTTA) | 1.36
TGGTAGTCTTGGGTTCTAACCTGTTGCGT (site AAAGCTACTTA) | 0.0198
TGGTAGTCTTGGGTTCTAACCTGTTGCGT (site TGGTAGTCTAC) | 2.57
TGGTATACTTGGGTTCTAACCTGTTGCCT (site TGGTATACTAG) | 0.241
TGGTATACTTGGGTTCTAACCTGTTGCCT (site TGGTATCCTAG) | 0.0279
TGGTATACTTGGGTTCTAACCTGTTGCCT (site TGGTATGCTAG) | 0.183
TGGTATACTTGGGTTCTAACCTGTTGCCT (site TGGTATTCTAG) | 0.122

Sequence | recombinant barcode read abundance (log10)
TGGTGTGCTTGGGTTCTAACCTGTTGCCA (site TAGTGTCCTTG) | 0.0537
TGGTGTGCTTGGGTTCTAACCTGTTGCCA (site TGGTGTGCTTG) | 0.267
TGTAAGGCTTGGGTTCTAACCTGTTGCTT (site TGTAAGACTCA) | 0.142
TGTAAGGCTTGGGTTCTAACCTGTTGCTT (site TGTAAGGCTAA) | 0.27
TGTAATCCTTGGGTTCTAACCTGTTGCCT (site TGTAATACTAG) | 0.327
TGTAATCCTTGGGTTCTAACCTGTTGCCT (site TGTAATCCTAG) | 0.025
TGTAATCCTTGGGTTCTAACCTGTTGCCT (site TGTAATGCTAG) | 0.032
TGTAATCCTTGGGTTCTAACCTGTTGCCT (site TGTAATTCTAG) | 0.0105
TGTAATGCTTGGGTTCTAACCTGTTGCCT (site TGTAATACTAG) | 0.0123
TGTAATGCTTGGGTTCTAACCTGTTGCCT (site TGTAATCCTAG) | 0.181
TGTAATGCTTGGGTTCTAACCTGTTGCCT (site TGTAATGCTAG) | 0.912
TGTAATGCTTGGGTTCTAACCTGTTGCCT (site TGTAATTCTAG) | 0.181
TGTAATTCTTGGGTTCTAACCTGTTGCCT (site TGTAATACTAG) | 0.139
TGTAATTCTTGGGTTCTAACCTGTTGCCT (site TGTAATCCTAG) | 0.0849
TGTAATTCTTGGGTTCTAACCTGTTGCCT (site TGTAATGCTAG) | 0
TGTAATTCTTGGGTTCTAACCTGTTGCCT (site TGTAATTCTAG) | 0.18
TGTCAAACTTGGGTTCTAACCTGTTGCGT (site TGTCAAACTAC) | 0.838
TGTCAAACTTGGGTTCTAACCTGTTGCGT (site TGTCAACCTAC) | 0.0278
TGTCGAGCTTGGGTTCTAACCTGTTGCCG (site TGTAGAGCTCG) | 0.0366
TGTCGAGCTTGGGTTCTAACCTGTTGCCG (site TGTCGAGCTCG) | 0.107
TGTCGAGCTTGGGTTCTAACCTGTTGCCG (site TGTGGAGCTCG) | 0.0604
TGTCGAGCTTGGGTTCTAACCTGTTGCCG (site TGTTGAGCTCG) | 0.106

Sequence | recombinant barcode read abundance (log10)
TGTCGCTCTTGGGTTCTAACCTGTTGCCT (site TGACGCTCTAG) | 0.0464
TGTCGCTCTTGGGTTCTAACCTGTTGCCT (site TGCCGCTCTAG) | 0.0379
TGTCGCTCTTGGGTTCTAACCTGTTGCCT (site TGGCGCTCTAG) | 0.129
TGTCGCTCTTGGGTTCTAACCTGTTGCCT (site TGTCGCTCTAG) | 1.1
TGTCGGACTTGGGTTCTAACCTGTTGCAA (site TGTCGGACTAT) | 0.146
TGTCGGACTTGGGTTCTAACCTGTTGCAA (site TGTCGGACTCT) | 0.149
TGTCGGACTTGGGTTCTAACCTGTTGCAA (site TGTCGGACTGT) | 0.0423
TGTCGGACTTGGGTTCTAACCTGTTGCAA (site TGTCGGACTTT) | 0.421
TGTCGGACTTGGGTTCTAACCTGTTGCAT (site TGTCGGACTAT) | 1.32
TGTCGGACTTGGGTTCTAACCTGTTGCAT (site TGTCGGACTCT) | 0.18
TGTCGGACTTGGGTTCTAACCTGTTGCAT (site TGTCGGACTGT) | 0.0199
TGTCGGACTTGGGTTCTAACCTGTTGCAT (site TGTCGGACTTT) | 0.0384
TGTCTACCTTGGGTTCTAACCTGTTGCTA (site TGTCTACCTTA) | 0.103
TGTCTACCTTGGGTTCTAACCTGTTGCTA (site TGTCTCCCTAA) | 0.209
TGTCTCCCTTGGGTTCTAACCTGTTGCGT (site GAAGAGGCTTG) | 0.154
TGTCTCCCTTGGGTTCTAACCTGTTGCGT (site TGTCTCCCTAC) | 1.04
TGTCTGTCTTGGGTTCTAACCTGTTGCTT (site TGTCTGTCTAA) | 0.186
TGTCTGTCTTGGGTTCTAACCTGTTGCTT (site TGTCTGTCTTA) | 0.0372
TGTGACTCTTGGGTTCTAACCTGTTGCCT (site TGAGACTCTAG) | 0.088
TGTGACTCTTGGGTTCTAACCTGTTGCCT (site TGCGACTCTAG) | 0.0199
